Test results: US12162901B2, “N-acetylated sialic acids and related sialosides” (priority 2016, dated 2024)

Key:
BJA-B K20 cells [1] = assay: Feeding of free sialic acids to BJA-B K20 cells, PToV probes, flow cytometry; format: cell-based, human; conditions: 1 mM free sialic acid, three days of feeding
human CD22-Fc/Siglec-2 = assay: Feeding of free sialic acids to BJA-B K20 cells, probing with human CD22-Fc, flow cytometry; format: cell-based; conditions: 3 mM, 3 days of feeding
Procedure: Cell Culture and Sugar Supplementation.
Flow Cytometry. Cells were washed with PBS and incubated with 10 μg/mL of PToV probes in PBS with 1% BSA and 10 mM EDTA for 30 minutes on ice. Subsequently, cells were washed with PBS and incubated with PE goat anti-human IgG antibody for 30 minutes on ice. After an additional washing step, the cells were analyzed by FACSCalibur (BD).
After 3 days of feeding, BJA-B K20 cells were probed with human CD22-Fc/Siglec-2 to detect ligands (FIG. 7). […] However, when the cells were grown in the presence of Neu5Ac9NAc, the expression of the CD22 ligand was minimal (FIG. 7C). […] This supports previous observations that human CD22-Fc recognizes α2-6-linked sialosides with Neu5Ac or N-glycolylneuraminic acid (Neu5Gc) as the preferred naturally existing sialic acid form and 9-O-acetyl modification on sialic acid blocks the binding.

influenza C virus = conditions: background statement; cited from earlier work
BJA-B K20 cells [2] = assay: Feeding of free sialic acids to BJA-B K20 cells, DMB derivatization and HPLC of membrane sialic acids; conditions: 1 mM for 3 days; sialic acids released with Vibrio cholerae neuraminidase

**Q.** For `CC(=O)NC[C@@H](O)[C@@H](O)[C@@H]1OC(O)(C(=O)O)C[C@H](O)[C@H]1NC(C)=O` (stereo partly drawn) [Neu5Ac9NAc, 5,9-Diacetamido-3,5,9-Trideoxy-D-glycero-D-galacto-2-nonulopyranosylonic Acid], which “cell surface incorporation detected with PToV probe” value (BJA-B K20 cells [1]) is on record?
**A.** detected on the cell surface

**Q.** And the “expression of CD22 ligand on fed cells” value (human CD22-Fc/Siglec-2)?
**A.** minimal

**Q.** And the “binding to influenza C virus and fate under hemagglutinin-esterase” value (influenza C virus)?
**A.** mimic Neu5,9Ac2 in binding to influenza C virus without being destroyed by esterase activity

**Q.** And the “incorporation on the cell membrane (DMB-HPLC)” value (BJA-B K20 cells [2])?
**A.** showed incorporation
